Assay results as given in BindingDB's records for patent US11802108 (The University Court of The University of Edinburgh, 2023).

Target: Peptidyl-prolyl cis-trans isomerase A (Homo sapiens, UniProt P62937)
Assay: Isothermal Titration Calorimetry (ITC)
Procedure: The buffer used in the titrations of the compounds belonging to the ester series was 50 mM phosphate buffer, pH 6.5 and the concentration of DMSO was 2% v/v for all the compounds, unless otherwise stated in Table 51. […] Control experiments were performed, where each compound was titrated into buffer and when small amount of heat was detected due to heat of dilution, it was subtracted when processing the data using a linear fit method. In all cases the first injection was omitted from the data processing. All data were analysed using the MicroCal PEAQ-ITC Analysis software.

Peptidyl-prolyl cis-trans isomerase A, sequence (P62937 whole entry): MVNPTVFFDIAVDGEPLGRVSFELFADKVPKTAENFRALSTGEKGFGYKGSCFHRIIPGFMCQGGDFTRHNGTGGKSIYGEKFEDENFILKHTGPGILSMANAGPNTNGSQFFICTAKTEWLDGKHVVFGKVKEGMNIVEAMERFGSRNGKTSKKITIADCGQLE

CCOC(=O)CNC(=O)N(Cc1ccc(N)cc1)Cc1cn(CC(=O)OCC)nn1 [US11802108, Compound 20]
Kd: > 600 µM
